Experimental data taken from PMC2365101, “Anti-Inflammatory Activity of (Polyphenolic)-Sulfonates and Their Sodium Salts in Rodents” (Metal-Based Drugs, 1998).

Molecular target: J774-A1 prostaglandin cyclooxygenase
Experiment: Prostaglandin cyclooxygenase activity in J774-A1 macrophages
Type: cell-based, mouse
Conditions: 60 min; read-out: IC50 Cyclo-oxygenase J774-A1
From the text: Few reports in the literature indicate interaction at these receptor sites other than by peptides or antibodies. […] Blocking these receptors is desirable because the entire inflammation cascade of events is triggered by the early release of TNFa and IL-1. […] Radioisotopes were obtained from New England Nuclear [Dupont, Boston, MA] and substrates and co- factors were obtained from Sigma Chemical Co. [St. Louis, MO]. […] Cell lines were obtained from American Type Culture Collection [Rockville, MD]. In Vivo Tests Anti-inflammatory screen in mice: Male CF male mice weighing 28-32g obtained from Jackson Lab. [Bar Harbor, […]] were used to screen agents at 8 or 16 mg/kg intraperitoneal [I.P.] x 2 administered 3 hr and 30 min prior to administering the irritant, according to Winter's protocol. Evaluation of the induced edema was made by injecting 2% carrageenan in 0.9% saline into the plantar region of the foot. The opposite foot injected with 0.9% isotonic saline was used as a base line. […] Salmonella abortus equi [Lot # 69F4003] […] Drugs from 2 to 16 mg/kg, I.P. were administered 2 hr prior and 2 hr post-injection of the LPS and then subsequently for every 24 hr for the length ofthe animals' lives. Deaths were recorded every 12 hr and continued for 96 hr. […] In vitro TNFa andIL-1 Measurements and Cellular Regulation IC-21 mouse macrophages were maintained in RPMI-1640 + 10% FCS + P/S. After the cells had grown to confluency, E. coli LPS at 10 Ixg/ml was added to the medium. Agents were incubated at 12.5 to 100 µM final concentration for 18 hr. The medium (100 btl) was collected for TNFCt determinations. Interleukin-1 [IL-1] release was determined using P388D1 cells which were maintained in RPMI-1640 + 10% FCS + P/S. The L929 bioassay was used to quantitate the TNF and the IL-1 levels. The L929 mouse fibroblasts were grown in DMEM + 10% FCS + P/S to confluency in 96 well plates and incubated with 100 tl ofmedium from […] or P388D cells after 18 hr. The cells were stained with 0.2% crystal violet in 20% MeOH and read at 580 nm using a Molecular Devices scanner (SOFT-max program). High Affinity Binding to Receptors on L929-106 Cells Two laCi of 125I-TNFct (human recombinant, 30 mCi/tg New England Nuclear) or 125I-IL-1 (70-120[.t Ci/lxg,New England Nuclear) was added to confluency L929 cells for 90 min or 5 hr, respectively with 25, 50 and 100 tM of the test compounds 12]. The cells were washed repeatedly with isotonic saline, pH.7.2 and aliquots counted. Prostaglandin cylcooxygenase activity Mouse J774AI macrophages maintained in Dulbecco's modified Eagle's medium + 15% FCS + P/S. Cells (5 x 106) were incubated with agents (5 to 100 ].tM final concentration) and 3H-arachidonic acid (100 Ci/mol) for 60 min at 37C in a CO2 incubator. The reaction was terminated with 2N HCI, the mixture extracted 2 X with ether, and the organic layer evaporated.

## CC(=O)Oc1c2cc(S(=O)(=O)[O-])cc1Cc1cc(S(=O)(=O)[O-])cc(c1OC(C)=O)Cc1cc(S(=O)(=O)[O-])cc(c1OC(C)=O)Cc1cc(S(=O)(=O)[O-])cc(c1OC(C)=O)Cc1cc(S(=O)(=O)[O-])cc(c1OC(C)=O)Cc1cc(S(=O)(=O)[O-])cc(c1OC(C)=O)Cc1cc(S(=O)(=O)[O-])cc(c1OC(C)=O)Cc1cc(S(=O)(=O)[O-])cc(c1OC(C)=O)C2.[Na+].[Na+].[Na+].[Na+].[Na+].[Na+].[Na+].[Na+] [Compound 8]
  IC50: 33.3 µM
